From ChEMBL document CHEMBL6109122 (J Med Chem, 2025)
Active and inactive are the calls of the source. The calls are words filed in the database; no cut-off is given here.

Legend:
Jurkat [1] = experiment: Effect on JAK3 protein level in human Jurkat cells at 30 nM measured after 4 hrs by DIA-Based Proteomic analysis; type: functional, cell-based
Mus musculus [2] = organism: Mus musculus; experiment: Anti-inflammatory activity in imiquimod-induced female BALB/c mouse psoriasis model assessed as reduction in IL-23 expression in skin by ELISA method; type: functional, organism-based
Mus musculus [3] = experiment: Anti-inflammatory activity in imiquimod-induced female BALB/c mouse psoriasis model assessed as effect on body weight at 5 mg/kg, ip administered daily topically for 6 days; type: functional, organism-based; conditions: time 6.0 day
[4] = target: T1, Protein cereblon/Non-receptor tyrosine-protein kinase TYK2 (Homo sapiens, UniProt P29597+Q96SW2); experiment: PROTAC activity at CRBN/TYK2 in human Jurkat cells assessed as induction of degradation of TYK2 at 10 nM preincubated with bortezomib for 2 hrs followed by compound addition and measured after 10 hrs by Western blot analysis; type: cell-based
Target sequence in this assay (P29597 whole entry, looked up): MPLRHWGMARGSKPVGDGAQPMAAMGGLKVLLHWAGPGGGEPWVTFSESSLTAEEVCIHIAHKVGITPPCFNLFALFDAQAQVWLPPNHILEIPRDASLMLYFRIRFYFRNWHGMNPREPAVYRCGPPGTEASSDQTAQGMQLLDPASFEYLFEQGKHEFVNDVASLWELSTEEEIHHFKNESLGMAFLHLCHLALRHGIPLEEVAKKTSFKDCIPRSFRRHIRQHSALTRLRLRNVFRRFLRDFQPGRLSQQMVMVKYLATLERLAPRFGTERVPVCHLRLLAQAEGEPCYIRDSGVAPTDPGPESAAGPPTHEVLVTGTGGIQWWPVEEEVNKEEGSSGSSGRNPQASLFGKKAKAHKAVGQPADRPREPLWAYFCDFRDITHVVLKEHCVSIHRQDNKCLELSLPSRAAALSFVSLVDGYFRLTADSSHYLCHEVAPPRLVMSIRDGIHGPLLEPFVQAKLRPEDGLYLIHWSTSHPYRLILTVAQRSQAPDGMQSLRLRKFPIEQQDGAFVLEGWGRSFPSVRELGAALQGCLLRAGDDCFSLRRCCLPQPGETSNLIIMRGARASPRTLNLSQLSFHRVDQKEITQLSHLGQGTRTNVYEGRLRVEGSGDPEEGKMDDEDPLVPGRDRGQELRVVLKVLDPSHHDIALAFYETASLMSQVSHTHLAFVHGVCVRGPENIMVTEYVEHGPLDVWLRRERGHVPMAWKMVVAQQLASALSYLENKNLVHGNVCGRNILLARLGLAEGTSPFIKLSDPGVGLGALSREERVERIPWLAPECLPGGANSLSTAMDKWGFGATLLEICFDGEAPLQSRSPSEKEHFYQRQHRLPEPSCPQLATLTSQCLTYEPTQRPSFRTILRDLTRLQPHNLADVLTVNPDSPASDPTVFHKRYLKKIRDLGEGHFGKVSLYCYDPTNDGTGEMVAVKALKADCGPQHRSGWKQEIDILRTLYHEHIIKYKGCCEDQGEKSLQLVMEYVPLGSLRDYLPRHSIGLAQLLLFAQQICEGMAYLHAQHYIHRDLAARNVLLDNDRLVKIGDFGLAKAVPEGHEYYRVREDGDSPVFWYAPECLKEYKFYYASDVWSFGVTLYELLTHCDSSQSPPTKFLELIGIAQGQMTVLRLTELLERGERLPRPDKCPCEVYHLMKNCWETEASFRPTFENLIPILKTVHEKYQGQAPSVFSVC
Target sequence in this assay (Q96SW2 whole entry, looked up): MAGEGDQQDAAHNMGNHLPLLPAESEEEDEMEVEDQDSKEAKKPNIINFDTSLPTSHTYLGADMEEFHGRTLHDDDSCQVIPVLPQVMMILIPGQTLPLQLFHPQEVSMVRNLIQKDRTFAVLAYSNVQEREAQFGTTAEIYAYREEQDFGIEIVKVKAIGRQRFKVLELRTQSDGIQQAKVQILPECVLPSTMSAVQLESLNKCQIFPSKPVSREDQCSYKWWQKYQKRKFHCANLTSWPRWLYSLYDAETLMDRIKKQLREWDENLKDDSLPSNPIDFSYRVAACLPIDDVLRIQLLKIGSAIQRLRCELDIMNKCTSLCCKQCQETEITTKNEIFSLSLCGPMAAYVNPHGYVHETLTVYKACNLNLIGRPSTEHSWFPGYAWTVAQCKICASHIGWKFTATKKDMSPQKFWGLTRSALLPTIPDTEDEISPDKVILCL

[5] = AUC (0 to infinity) in male ICR mouse at 5 mg/kg, ip measured up to 24 hrs by LC-MS/MS analysis; type: ADME, organism-based; conditions: in vivo
[6] = Selectivity ratio of IC50 for displacement of fluorophore-labeled probe from JAK2 JH2 domain (unknown origin) to IC50 for displacement of fluorophore-labeled probe from TYK2 JH2 domain (unknown origin)
[7] = target: T2, Non-receptor tyrosine-protein kinase TYK2 (Homo sapiens, UniProt P29597); experiment: Displacement of fluorophore-labeled probe from TYK2 JH2 domain (unknown origin) by HTRF assay
Mus musculus [8] = experiment: Anti-inflammatory activity in imiquimod-induced female BALB/c mouse psoriasis model assessed as reduction in acanthosis at 5 mg/kg, ip administered daily topically for 6 days by H and E staining based analysis; type: functional, organism-based; conditions: time 6.0 day
[9] = AUC (0 to t) in male ICR mouse at 5 mg/kg, ip measured up to 24 hrs by LC-MS/MS analysis; type: ADME, organism-based; conditions: in vivo
Mus musculus [10] = organism: Mus musculus; experiment: Anti-inflammatory activity in imiquimod-induced female BALB/c mouse psoriasis model assessed as reduction in IL-23 expression in serum by ELISA method; type: functional, organism-based
[11] = Inhibition of IFN-alpha activated TYK2 dependent STAT3 phosphorylation in human Jurkat cells incubated for 10 hrs by Western blot analysis; type: cell-based
Mus musculus [12] = experiment: Anti-inflammatory activity in imiquimod-induced female BALB/c mouse psoriasis model assessed as reduction in hyperkeratosis at 5 mg/kg, ip administered daily topically for 6 days by H and E staining based analysis; type: functional, organism-based; conditions: time 6.0 day
[13] = Inhibition of TYK2 dependent STAT3 phosphorylation in IL-6 stimulated human PBMC cells preincubated for 60 mins followed by IL-6 stimulation and measured after 60 mins by FACS assay; type: cell-based
Jurkat [14] = experiment: Downregulation of Ikaros level in human Jurkat cells at 30 nM measured after 4 hrs by DIA-Based Proteomic analysis; type: functional, cell-based
Jurkat [15] = experiment: Downregulation of JAK3 protein level in human Jurkat cells at 1 to 100 nM measured after 10 hrs by Western blot analysis; type: functional, cell-based; conditions: dose 1-100 nM
Mus musculus [16] = experiment: Anti-inflammatory activity in imiquimod-induced female BALB/c mouse psoriasis model assessed as reduction in psoriasis area severity index at 5 mg/kg, ip administered daily topically for 6 days; type: functional, organism-based; conditions: time 6.0 day
[17] = target: T1, Protein cereblon/Non-receptor tyrosine-protein kinase TYK2; experiment: PROTAC activity at CRBN/TYK2 in human Jurkat cells assessed as induction of degradation of TYK2 at 10 nM preincubated with deucravacitinib for 2 hrs followed by compound addition and measured after 10 hrs by Western blot analysis; type: cell-based
Target sequence in this assay (P29597 whole entry, looked up): as the sequence (P29597 whole entry, looked up) above
Target sequence in this assay (Q96SW2 whole entry, looked up): as the sequence (Q96SW2 whole entry, looked up) above

Mus musculus [18] = organism: Mus musculus; experiment: Anti-inflammatory activity in imiquimod-induced female BALB/c mouse psoriasis model assessed as reduction in IL-17 expression in serum by ELISA method; type: functional, organism-based
[19] = target: T1, Protein cereblon/Non-receptor tyrosine-protein kinase TYK2; experiment: PROTAC activity at CRBN/TYK2 in human HaCaT cells assessed as induction of degradation of TYK2 measured after 10 hrs by Western blot analysis; type: cell-based; conditions: dose 1-100 nM
Target sequence in this assay (P29597 whole entry, looked up): as the sequence (P29597 whole entry, looked up) above
Target sequence in this assay (Q96SW2 whole entry, looked up): as the sequence (Q96SW2 whole entry, looked up) above

[20] = target: Tyrosine-protein kinase JAK1 (Homo sapiens, UniProt P23458); experiment: Binding affinity to JAK1 (unknown origin) by ADP-glo kinase assay
Mus musculus [21] = experiment: Anti-inflammatory activity in imiquimod-induced female BALB/c mouse psoriasis model assessed as reduction in concomitant splenomegaly at 5 mg/kg, ip administered daily topically for 6 days; type: functional, organism-based; conditions: time 6.0 day
[22] = target: T1, Protein cereblon/Non-receptor tyrosine-protein kinase TYK2; experiment: PROTAC activity at CRBN/TYK2 in human Jurkat cells assessed as induction of degradation of TYK2 at 10 nM preincubated with MG132 for 2 hrs followed by compound addition and measured after 10 hrs by Western blot analysis; type: cell-based
Target sequence in this assay (P29597 whole entry, looked up): as the sequence (P29597 whole entry, looked up) above
Target sequence in this assay (Q96SW2 whole entry, looked up): as the sequence (Q96SW2 whole entry, looked up) above

Mus musculus [23] = experiment: Anti-inflammatory activity in imiquimod-induced female BALB/c mouse psoriasis model assessed as reduction in micro abscess at 5 mg/kg, ip administered daily topically for 6 days by H and E staining based analysis; type: functional, organism-based; conditions: time 6.0 day
Jurkat [24] = experiment: Downregulation of JAK1 protein level in human Jurkat cells at 1 to 100 nM measured after 10 hrs by Western blot analysis; type: functional, cell-based; conditions: dose 1-100 nM
[25] = target: T2, Non-receptor tyrosine-protein kinase TYK2; experiment: Binding affinity to TYK2 JH1 domain (unknown origin) by ADP-glo kinase assay
[26] = Metabolic stability in mouse liver microsomes assessed as half life measured up to 120 mins by LC-MS/MS analysis; type: ADME, Microsome
[27] = target: T1, Protein cereblon/Non-receptor tyrosine-protein kinase TYK2; experiment: PROTAC activity at CRBN/TYK2 in human Jurkat cells assessed as induction of degradation of TYK2 at 10 nM measured after 10 to 36 hrs by Western blot analysis relative to control; type: cell-based; conditions: time 10-36 hrs
Target sequence in this assay (P29597 whole entry, looked up): as the sequence (P29597 whole entry, looked up) above
Target sequence in this assay (Q96SW2 whole entry, looked up): as the sequence (Q96SW2 whole entry, looked up) above

[28] = target: T1, Protein cereblon/Non-receptor tyrosine-protein kinase TYK2; experiment: PROTAC activity at CRBN/TYK2 in human Jurkat cells assessed as induction of degradation of TYK2 measured after 10 hrs by Western blot analysis; type: cell-based
Target sequence in this assay (P29597 whole entry): as the sequence (P29597 whole entry, looked up) above
Target sequence in this assay (Q96SW2 whole entry): as the sequence (Q96SW2 whole entry, looked up) above

[29] = target: Tyrosine-protein kinase JAK2 (Homo sapiens, UniProt O60674); experiment: Binding affinity to JAK2 (unknown origin) by ADP-glo kinase assay
Mus musculus [30] = organism: Mus musculus; experiment: Anti-inflammatory activity in imiquimod-induced female BALB/c mouse psoriasis model assessed as reduction in INF-alpha expression in skin by ELISA method; type: functional, organism-based
[31] = Apparent permeability of the compound in human Caco-2 cells at 10 uM measured up to 120 min by LC-MS/MS analysis; type: ADME, cell-based
[32] = Metabolic stability in mouse liver microsomes assessed as intrinsic clearance measured up to 120 mins by LC-MS/MS analysis; type: ADME, Microsome; conditions: read-out: CLH
[33] = target: T1, Protein cereblon/Non-receptor tyrosine-protein kinase TYK2; experiment: PROTAC activity at CRBN/TYK2 in human Jurkat cells assessed as induction of degradation of TYK2 at 10 nM preincubated for 24 hrs followed by compound washout and followed by incubation in compound free medium by Western blot analysis; type: cell-based
Target sequence in this assay (P29597 whole entry, looked up): as the sequence (P29597 whole entry, looked up) above
Target sequence in this assay (Q96SW2 whole entry, looked up): as the sequence (Q96SW2 whole entry, looked up) above

[34] = target: T1, Protein cereblon/Non-receptor tyrosine-protein kinase TYK2; experiment: PROTAC activity at CRBN/TYK2 in human Jurkat cells assessed as induction of degradation of TYK2 at 1 nM measured after 10 hrs by Western blot analysis relative to control; type: cell-based
Jurkat [35] = experiment: Downregulation of TYK2 protein level in human Jurkat cells at 30 nM measured after 4 hrs by DIA-Based Proteomic analysis; type: functional, cell-based
Mus musculus [36] = experiment: Anti-inflammatory activity in imiquimod-induced female BALB/c mouse psoriasis model assessed as alleviation of psoriasis pathology at 15 mg/kg, ip administered daily topically for 6 days; type: functional, organism-based; conditions: time 6.0 day
[37] = Inhibition of TYK2 dependent STAT3 phosphorylation in IL-12 stimulated human PBMC cells preincubated for 60 mins followed by IL-12 stimulation and measured after 60 mins by FACS assay; type: cell-based

T2 sequence (P29597 whole entry, the tested form may be a part): as the sequence (P29597 whole entry, looked up) above
Tyrosine-protein kinase JAK1, sequence (P23458 whole entry): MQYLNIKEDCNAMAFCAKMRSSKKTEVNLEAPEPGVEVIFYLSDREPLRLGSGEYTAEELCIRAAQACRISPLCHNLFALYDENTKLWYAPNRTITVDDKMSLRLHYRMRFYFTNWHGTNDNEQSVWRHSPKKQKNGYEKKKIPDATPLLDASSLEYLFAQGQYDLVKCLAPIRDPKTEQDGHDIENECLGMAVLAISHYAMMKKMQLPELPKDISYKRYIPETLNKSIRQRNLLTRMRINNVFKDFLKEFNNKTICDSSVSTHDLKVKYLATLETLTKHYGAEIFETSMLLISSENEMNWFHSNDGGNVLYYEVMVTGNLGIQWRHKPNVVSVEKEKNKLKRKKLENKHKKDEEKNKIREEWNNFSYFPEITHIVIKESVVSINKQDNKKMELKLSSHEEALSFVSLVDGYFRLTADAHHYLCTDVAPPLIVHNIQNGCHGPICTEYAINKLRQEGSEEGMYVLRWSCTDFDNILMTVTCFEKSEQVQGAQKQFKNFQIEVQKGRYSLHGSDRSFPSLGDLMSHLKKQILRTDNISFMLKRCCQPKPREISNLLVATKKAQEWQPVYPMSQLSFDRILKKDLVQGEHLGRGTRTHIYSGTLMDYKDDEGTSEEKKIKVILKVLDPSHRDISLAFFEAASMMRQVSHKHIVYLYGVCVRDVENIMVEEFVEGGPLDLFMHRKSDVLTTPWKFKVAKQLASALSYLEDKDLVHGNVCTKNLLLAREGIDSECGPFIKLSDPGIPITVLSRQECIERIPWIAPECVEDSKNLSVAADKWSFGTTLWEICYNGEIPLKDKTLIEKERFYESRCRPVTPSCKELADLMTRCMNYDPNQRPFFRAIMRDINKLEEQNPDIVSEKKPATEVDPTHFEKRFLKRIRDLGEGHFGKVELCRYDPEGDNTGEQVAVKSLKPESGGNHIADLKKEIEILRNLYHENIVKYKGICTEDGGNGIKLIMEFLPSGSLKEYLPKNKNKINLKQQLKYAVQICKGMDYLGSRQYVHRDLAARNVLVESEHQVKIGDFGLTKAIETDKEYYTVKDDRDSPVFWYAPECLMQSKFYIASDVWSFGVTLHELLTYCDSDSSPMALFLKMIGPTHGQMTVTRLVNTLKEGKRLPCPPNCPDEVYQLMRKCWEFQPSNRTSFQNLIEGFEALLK
Tyrosine-protein kinase JAK2, sequence (O60674 whole entry): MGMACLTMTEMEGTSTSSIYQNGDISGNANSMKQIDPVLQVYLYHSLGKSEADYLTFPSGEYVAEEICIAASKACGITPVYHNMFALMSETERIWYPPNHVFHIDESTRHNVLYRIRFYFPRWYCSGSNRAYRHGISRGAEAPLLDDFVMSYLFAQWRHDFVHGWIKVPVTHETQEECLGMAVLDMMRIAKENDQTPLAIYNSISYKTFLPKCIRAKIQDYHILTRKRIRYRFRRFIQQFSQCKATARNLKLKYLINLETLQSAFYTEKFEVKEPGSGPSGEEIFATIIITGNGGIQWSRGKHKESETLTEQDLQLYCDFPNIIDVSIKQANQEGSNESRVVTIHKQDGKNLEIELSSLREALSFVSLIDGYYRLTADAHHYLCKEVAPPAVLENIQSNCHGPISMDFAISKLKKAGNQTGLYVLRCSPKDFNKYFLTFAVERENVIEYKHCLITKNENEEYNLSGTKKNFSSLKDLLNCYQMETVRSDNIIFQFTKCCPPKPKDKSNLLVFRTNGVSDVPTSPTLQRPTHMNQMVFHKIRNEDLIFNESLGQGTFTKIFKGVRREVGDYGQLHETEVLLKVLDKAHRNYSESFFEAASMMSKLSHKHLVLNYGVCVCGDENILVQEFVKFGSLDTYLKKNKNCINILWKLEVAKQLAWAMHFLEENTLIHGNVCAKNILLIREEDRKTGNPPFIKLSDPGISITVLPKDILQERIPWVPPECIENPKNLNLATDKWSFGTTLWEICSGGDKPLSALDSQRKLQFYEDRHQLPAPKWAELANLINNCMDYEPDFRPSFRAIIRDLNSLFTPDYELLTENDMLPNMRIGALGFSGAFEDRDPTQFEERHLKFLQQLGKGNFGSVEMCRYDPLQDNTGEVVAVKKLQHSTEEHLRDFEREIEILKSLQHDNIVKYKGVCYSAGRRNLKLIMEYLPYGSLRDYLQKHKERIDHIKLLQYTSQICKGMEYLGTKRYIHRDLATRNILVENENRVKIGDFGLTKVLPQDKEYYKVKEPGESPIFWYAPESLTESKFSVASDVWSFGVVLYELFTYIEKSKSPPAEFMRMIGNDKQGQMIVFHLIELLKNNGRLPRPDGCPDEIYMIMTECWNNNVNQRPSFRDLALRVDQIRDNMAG

CNC(=O)c1cnc(Nc2ccc(C(=O)NC3CCC(Nc4ccc5c(c4)C(=O)N(C4CCC(=O)NC4=O)C5=O)CC3)cn2)cc1Nc1cccc(-c2ncc(F)cn2)c1OC (configuration not stated)
Activity (Jurkat [1]): inactive
Activity (Mus musculus [2]): Active
Activity (Mus musculus [3]): Active
Activity [4]: inactive
AUC(0-inf) [5]: 4780 ng·h/mL
Ratio IC50 [6]: > 80
IC50 [7]: 1.2 nM
Activity (Mus musculus [8]): Active
AUC(0-t) at 24 h [9]: 4770 ng·h/mL
Activity (Mus musculus [10]): Active
IC50 [11]: 6.7 nM
Activity (Mus musculus [12]): Active
IC50 [13]: > 10000 nM
Activity (Jurkat [14]): inactive
Activity (Jurkat [15]): Active
Activity (Mus musculus [16]): Active
Activity [17]: inactive
Activity (Mus musculus [18]): Active
Activity [19]: Dose-dependent-effect
IC50 [20]: > 10000 nM
Activity (Mus musculus [21]): Active
Activity [22]: inactive
Activity (Mus musculus [23]): Active
Activity (Jurkat [24]): Active
IC50 [25]: > 10000 nM
half-life [26]: 1.68 h
Activity [27]: 90%
DC50 [28]: 0.42 nM
IC50 [29]: > 10000 nM
Activity (Mus musculus [30]): Active
Papp at 2 h, 10 µM [31]: < 0.1 ×10⁻⁶ cm/s
CLint scaled [32]: 54 mL/min/kg
Activity [33]: inactive
Activity [34]: 63%
Activity (Jurkat [35]): Active
Activity (Mus musculus [36]): Active
IC50 [37]: 8.6 nM
